Source: patent US20220339143A1, “TAK-925 FOR USE IN TREATING NARCOLEPSY” (Takeda Pharmaceutical Company Limited, priority 2019, published 2022)
Entries after “also recorded” stand apart in the source; their conditions may differ. Read-outs that look alike come from different tables or passages of the source.

Assay: Single dose PK in patients with narcolepsy (Cohorts 5, 6 and 7), plasma
Assay type: in vivo, human
Details: for AUC(0-inf) / AUC(0-t) / Cmax / AUC / concentration at 9 h / Tmax / Vd / clearance: human, plasma, intravenous; for AUC: read-out: AUC24; for concentration at 9 h: read-out: Ceoi; for clearance: read-out: CL (converted)
Protocol: This study investigates (i) the safety and tolerability of Compound A (methyl (2R,3S)-3-((methylsulfonyl)amino)-2-(((cis-4-phenylcyclohexyl)oxy)methyl)piperidine-1-carboxylate) when a single dose given as a 9 hour continuous IV infusion is administered to healthy adults, healthy elderly subjects and patients with narcolepsy type 1 (NT1); (ii) the pharmacokinetics of Compound A when a single dose given as a 9 hour continuous IV infusion is administered to healthy adults, healthy elderly subjects and patients with narcolepsy type 1; and (iii) the pharmacodynamics (PD) effects of Compound A, primarily by evaluation of the sleep latency on MWT when a single dose given as a 9 hour continuous IV infusion is administered to patients with narcolepsy type 1.
In Part 2, NT1 patients received a single dose of Compound A or placebo administered as a continuous IV infusion over a 9-hour period during the day. A 40-minute Maintenance of Wakefulness Test (MWT) was conducted 4 times during the continuous IV infusion to assess effects on wakefulness in soporific conditions at 2, 4, 6 and 8 hours from start of infusion. Three cohorts of patients were enrolled (n=14 total).
Pharmacokinetics: Concentrations of Compound A in plasma, and CSF, and pharmacokinetics parameters.
On average, the time to reach the plateau appeared to be approximately 4 hours after the start of infusion. […] After switching off the IV infusion, Compound A plasma concentrations declined rapidly and in a biphasic manner with a mean terminal disposition phase t1/2z ranging approximately from 3.5 to 4.1 hours across the doses.

[1] = Cmpd A 5 mg, Mean, Cohort 5, 6, 7
[2] = Cmpd A 5 mg, Median, Cohort 5, 6, 7
[3] = Cmpd A 11.2 mg, Mean, Cohort 5, 6, 7
[4] = Cmpd A 11.2 mg, Median, Cohort 5, 6, 7
[5] = Cmpd A 44.8 mg, Mean, Cohort 5, 6, 7
[6] = Cmpd A 44.8 mg, Median, Cohort 5, 6, 7
[7] = 5 mg, Cmpd A 5 mg, Geo Mean, Cohort 5, 6, 7
[8] = 5 mg, Cmpd A 5 mg, Mean, Cohort 5, 6, 7
[9] = 5 mg, Cmpd A 5 mg, Median, Cohort 5, 6, 7
[10] = 11.2 mg, Cmpd A 11.2 mg, Geo Mean, Cohort 5, 6, 7
[11] = 11.2 mg, Cmpd A 11.2 mg, Mean, Cohort 5, 6, 7
[12] = 11.2 mg, Cmpd A 11.2 mg, Median, Cohort 5, 6, 7

COC(=O)N1CCC[C@H](NS(C)(=O)=O)[C@@H]1CO[C@H]1CC[C@@H](c2ccccc2)CC1 [Compound A, methyl (2R,3S)-3-((methylsulfonyl)amino)-2-(((cis-4-phenylcyclohexyl)oxy)methyl)piperidine-1-carboxylate]
AUCinf D [1]: 17.88 ng·h/mL/mg | CL [1]: 57.05 L/h | Cmax D [1]: 2.050 ng/mL/mg | t½z [1]: 3.465 h | AUCinf D [2]: 18.20 ng·h/mL/mg | Cmax D [2]: 2.000 ng/mL/mg | Vz [2]: 284.5 L | t½z [2]: 3.380 h | AUCinf D [3]: 17.95 ng·h/mL/mg | Cmax D [3]: 1.963 ng/mL/mg | Vss [3]: 114.1 L | Vz [3]: 316.8 L | t½z [3]: 3.923 h | AUCinf D [4]: 18.05 ng·h/mL/mg | Cmax D [4]: 1.990 ng/mL/mg | Vss [4]: 113.5 L | Vz [4]: 336.5 L | t½z [4]: 4.020 h | AUCinf D [5]: 21.45 ng·h/mL/mg | Cmax D [5]: 2.195 ng/mL/mg | t½z [5]: 4.130 h | AUCinf D [6]: 20.80 ng·h/mL/mg | Cmax D [6]: 2.170 ng/mL/mg | t½z [6]: 3.885 h | systemic exposures and clearance in NT1 patients vs healthy adults (IV administration): consistent with those observed in healthy adults; also recorded: comparable with those observed in healthy adults | dose proportionality of mean plasma systemic exposure (doses of 5 to 44.8 mg, NT1 patients): increased approximately dose proportionally | AUC(0-inf) [7]: 88.5 ng·h/mL | AUC(0-t) [7]: 86.2 ng·h/mL | Cmax [7]: 10.1 ng/mL | AUC [7]: 88 ng·h/mL | concentration at 9 h [7]: 9.65 ng/mL | AUC(0-inf) [8]: 89.3 ng·h/mL | AUC(0-t) [8]: 87.2 ng·h/mL | Cmax [8]: 10.2 ng/mL | Tmax [8]: 8 h | AUC [8]: 88.8 ng·h/mL | concentration at 9 h [8]: 9.71 ng/mL | Vd (5 mg, Cmpd A 5 mg, Mean, Cohort 5, 6, 7, read-out: Vss): 112 L | Vd (5 mg, Cmpd A 5 mg, Mean, Cohort 5, 6, 7, read-out: Vz): 282 L | AUC(0-inf) [9]: 91.1 ng·h/mL | AUC(0-t) [9]: 89.2 ng·h/mL | Cmax [9]: 9.99 ng/mL | Tmax [9]: 9 h | AUC [9]: 90.8 ng·h/mL | clearance [9]: 915 mL/min | concentration at 9 h [9]: 9.99 ng/mL | Vd (5 mg, Cmpd A 5 mg, Median, Cohort 5, 6, 7, read-out: Vss): 110 L | AUC(0-inf) [10]: 201 ng·h/mL | AUC(0-t) [10]: 199 ng·h/mL | Cmax [10]: 21.9 ng/mL | AUC [10]: 199 ng·h/mL | concentration at 9 h [10]: 21.2 ng/mL | AUC(0-inf) [11]: 201 ng·h/mL | AUC(0-t) [11]: 199 ng·h/mL | Cmax [11]: 22 ng/mL | Tmax [11]: 7.75 h | AUC [11]: 199 ng·h/mL | clearance [11]: 932 mL/min | concentration at 9 h [11]: 21.2 ng/mL | AUC(0-inf) [12]: 202 ng·h/mL | AUC(0-t) [12]: 200 ng·h/mL | Cmax [12]: 22.3 ng/mL
